Test results reported in PubChem BioAssay AID1259407 (Chemical Carcinogenesis Research Information System (CCRIS), 2018).
Activity calls are given as the source filed them. No rule for the calls is given here.

System: CCRIS mutagenicity, Ames/micronucleus/aberration tests
Test: CCRIS mutagenicity studies
[1] = Test System: AMES SALMONELLA TYPHIMURIUM, Strain/Indicator: TA98, Metabolic Activation: NONE, Method: STANDARD PLATE
[2] = Test System: AMES SALMONELLA TYPHIMURIUM, Strain/Indicator: TA100, Metabolic Activation: NONE, Method: STANDARD PLATE
[3] = Test System: AMES SALMONELLA TYPHIMURIUM, Strain/Indicator: TA1535, Metabolic Activation: NONE, Method: STANDARD PLATE
[4] = Test System: AMES SALMONELLA TYPHIMURIUM, Strain/Indicator: TA100, Metabolic Activation: NONE

O=[N+]([O-])c1ccc(Nc2ccc(N=C=S)cc2)cc1
mutagenic call (Test System: AMES SALMONELLA TYPHIMURIUM, Strain/Indicator: TA98, Metabolic Activation: NONE, Method: PREINCUBATION): inactive; negative
mutagenic call [1]: inactive; negative
mutagenic call (Test System: AMES SALMONELLA TYPHIMURIUM, Strain/Indicator: TA98, Metabolic Activation: RAT, LIVER, S-9, AROCLOR 1254, Method: PREINCUBATION): inactive; negative
mutagenic call (Test System: AMES SALMONELLA TYPHIMURIUM, Strain/Indicator: TA98, Metabolic Activation: RAT, LIVER, S-9, AROCLOR 1254 OR PHENOBARBITOL, Method: STANDARD PLATE): inactive; negative
mutagenic call [2]: inactive; negative
mutagenic call (Test System: AMES SALMONELLA TYPHIMURIUM, Strain/Indicator: TA100, Metabolic Activation: RAT, LIVER, S-9, AROCLOR 1254 OR PHENOBARBITOL, Method: STANDARD PLATE): inactive; negative
mutagenic call [3]: inactive; negative
mutagenic call (Test System: AMES SALMONELLA TYPHIMURIUM, Strain/Indicator: TA1535, Metabolic Activation: RAT, LIVER, S-9, AROCLOR 1254 OR PHENOBARBITOL, Method: STANDARD PLATE): inactive; negative
mutagenic call (Test System: AMES SALMONELLA TYPHIMURIUM, Strain/Indicator: TA1537, Metabolic Activation: NONE, Method: STANDARD PLATE): inactive; negative
mutagenic call (Test System: AMES SALMONELLA TYPHIMURIUM, Strain/Indicator: TA1537, Metabolic Activation: RAT, LIVER, S-9, AROCLOR 1254 OR PHENOBARBITOL, Method: STANDARD PLATE): inactive; negative
mutagenic call (Test System: AMES SALMONELLA TYPHIMURIUM, Strain/Indicator: TA1538, Metabolic Activation: NONE, Method: STANDARD PLATE): inactive; negative
mutagenic call (Test System: AMES SALMONELLA TYPHIMURIUM, Strain/Indicator: TA1538, Metabolic Activation: RAT, LIVER, S-9, AROCLOR 1254 OR PHENOBARBITOL, Method: STANDARD PLATE): inactive; negative

C1CC2OC2CCC2OC12 (stereo not given)
mutagenic call [2]: inactive; negative
mutagenic call [3]: inactive; negative

CC1(C)CC(C(=O)NC(CO)C(O)CO)C(C)(C)N1[O] (stereo not given)
mutagenic call (Test System: AMES SALMONELLA TYPHIMURIUM, Strain/Indicator: TA102, Metabolic Activation: NONE, Method: STANDARD PLATE): inactive; negative
mutagenic call (Test System: AMES SALMONELLA TYPHIMURIUM, Strain/Indicator: TA102, Metabolic Activation: XANTHINE OXIDASE, Method: STANDARD PLATE): inactive; negative
mutagenic call (Test System: AMES SALMONELLA TYPHIMURIUM, Strain/Indicator: TA104, Metabolic Activation: NONE, Method: STANDARD PLATE): inactive; negative
mutagenic call (Test System: AMES SALMONELLA TYPHIMURIUM, Strain/Indicator: TA104, Metabolic Activation: XANTHINE OXIDASE, Method: STANDARD PLATE): inactive; negative
mutagenic call (Test System: CHO, Strain/Indicator: CHO/6-THIOGUANINE, Metabolic Activation: NONE, Method: STANDARD PLATE): inactive; negative
mutagenic call (Test System: CHO, Strain/Indicator: CHO/6-THIOGUANINE, Metabolic Activation: RAT, LIVER, S-9, AROCLOR 1254, Method: STANDARD PLATE): inactive; negative
mutagenic call (Test System: CHO, Strain/Indicator: CHO/OUABAIN, Metabolic Activation: NONE, Method: STANDARD PLATE): inactive; negative
mutagenic call (Test System: CHO, Strain/Indicator: CHO/OUABAIN, Metabolic Activation: RAT, LIVER, S-9, AROCLOR 1254, Method: STANDARD PLATE): inactive; negative

CN=NC(C)(C)OO
mutagenic call [4]: active; positive
mutagenic call (Test System: AMES SALMONELLA TYPHIMURIUM, Strain/Indicator: TA102, Metabolic Activation: NONE): active; positive
mutagenic call (Test System: AMES SALMONELLA TYPHIMURIUM, Strain/Indicator: TA1535, Metabolic Activation: NONE): active; positive
mutagenic call (Test System: E. COLI, Strain/Indicator: WP2 (HCR-), Metabolic Activation: NONE): active; positive

CCOP(=S)(OCC)SCCl
mutagenic call (Test System: AMES SALMONELLA TYPHIMURIUM, Strain/Indicator: TA98, Metabolic Activation: NONE): inactive; negative
mutagenic call [1]: inactive; negative
mutagenic call (Test System: AMES SALMONELLA TYPHIMURIUM, Strain/Indicator: TA98, Metabolic Activation: RAT, LIVER, S-9, SODIUM PHENOBARBITAL, Method: STANDARD PLATE): inactive; negative
mutagenic call (Test System: AMES SALMONELLA TYPHIMURIUM, Strain/Indicator: TA98, Metabolic Activation: S-9): inactive; negative
mutagenic call [4]: inactive; negative
mutagenic call [2]: inactive; negative
mutagenic call (Test System: AMES SALMONELLA TYPHIMURIUM, Strain/Indicator: TA100, Metabolic Activation: RAT, LIVER, S-9, SODIUM PHENOBARBITAL, Method: STANDARD PLATE): inactive; negative
mutagenic call (Test System: AMES SALMONELLA TYPHIMURIUM, Strain/Indicator: TA100, Metabolic Activation: S-9): inactive; negative
mutagenic call (Test System: E. COLI, Strain/Indicator: WP2, Metabolic Activation: NONE): inactive; negative
mutagenic call (Test System: E. COLI, Strain/Indicator: WP2, Metabolic Activation: RAT, LIVER, S-9, SODIUM PHENOBARBITAL, Method: STANDARD PLATE): inactive; negative
mutagenic call (Test System: E. COLI, Strain/Indicator: WP2, Metabolic Activation: S-9): inactive; negative
mutagenic call (Test System: E. COLI, Strain/Indicator: WP2 UVRA, Metabolic Activation: NONE): inactive; negative
mutagenic call (Test System: E. COLI, Strain/Indicator: WP2 UVRA, Metabolic Activation: RAT, LIVER, S-9, SODIUM PHENOBARBITAL, Method: STANDARD PLATE): inactive; negative
mutagenic call (Test System: E. COLI, Strain/Indicator: WP2 UVRA, Metabolic Activation: S-9): inactive; negative
